The values that follow come from patent US20190160064A1, “METHODS FOR TREATING SKELETAL MUSCLE CACHEXIA ARISING FROM BURN INJURY BY ADMINISTERING PDE4B-SELECTIVE INHIBITORS” (University of Cincinnati, priority 2017, published 2019).

The test system of one assay is mouse myotubes, C2C12. Particulars: C2C12 myotubes treated with TNFα+IFNγ; cited from earlier work.
In assay [1] the test system is burn-induced skeletal muscle proteolysis. Particulars: rat, burn injury; cited from earlier work.
The subject of assay [2] is EDL muscle of burn-PDE4B KO rats. Put plainly: EDL muscle protein breakdown during 2 h in vitro incubation with EPAC/PKA inhibitors. Particulars: EDL muscle of burn-PDE4B KO rats obtained 24 h after burn, 2 h in vitro incubation with inhibitor. Type of assay: cell-based, rat. The method, then:
After 24 h, rats were re-anesthetized with pentobarbital (50 mg/kg), and the gastrocnemius muscles were dissected and rapidly frozen in liquid nitrogen. To assess protein breakdown rates, the dissected extensor digitorum longus (EDL) muscles were tied by the tendons at resting length to stainless steel supports and preincubated in a shaking water bath for 30 min at 37° C. in individually stoppered 25 ml flasks containing 3 ml oxygenated (95% 02-5% CO2) Krebs-Henseleit bicarbonate buffer (pH 7.4) with 10 mM glucose. Muscles were then transferred to fresh buffer containing 0.5 mM cycloheximide for 2 h incubation. The total (tyrosine) and myofibrillar (1-methyl-histidine, 1-Me-His) protein breakdown rates were determined by measuring the net production of tyrosine and 1-Me-His during 2 h incubation, according to previously published HPLC procedures (Balasubramaniam, A., et al., Torbafylline (HWA 448) inhibits skeletal muscle proteolysis in burned rats, J. Burn Care & Res. 30: S151 (2009)). The protein breakdown studies with PDE4B KO-rats were repeated with eight each of sham and burn rats to corroborate our initial findings. Additional in vivo experiments were performed to obtain tissues for biochemical studies and to study the effects of inhibitors of PKA (H89) and EPAC (ESI-09) on EDL protein breakdown in PDE4B KO-rats.
To elucidate the factor(s) imparting resistance to burn-induced skeletal muscle proteolysis in PDE4B-KO rats, EDL muscles of burn-PDE4B KO rats were incubated in the presence of inhibitors for cAMP downstream elements, PKA (H89) and EPAC (ESI-09).

For assay [3], the system named is EDL muscle of burned WT rats. Put plainly: Pre-treatment of WT rats before burn injury, EDL muscle protein breakdown (Example 6). Type of assay: in vivo, rat. Particulars: adult WT rats pre-treated daily for 7 days before 30% TBSA burn, 24 h after burn, vs. saline control WT rats. Here is the method:
Adult WT rats are pre-treated with either PDE4B-selective inhibitor (4-{[2-(5-Chloro-2-thienyl)-5-ethyl-6-methyl-4-pyrimidinyl]amino}phenyl)acetic acid (test group) or saline (control group). Rats are treated daily for 7 days prior to burn exposure. On day 8, rats are anaesthetized, shaved, and subjected to a third-degree burn on the back, affecting 30% of total body surface area (TBSA). Both test WT rats and control WT rats are then resuscitated. All rats are provided with rat chow equivalent to ˜10% of their body weight.
After 24 h, all rats are re-anesthetized and the gastrocnemius muscles are dissected and rapidly frozen in liquid nitrogen. To assess protein breakdown rates, the dissected extensor digitorum longus (EDL) muscles are tied by the tendons at resting length to stainless steel supports and preincubated in a shaking water bath for 30 min at 37° C. in individually stoppered 25 ml flasks containing oxygenated (95% 02-5% CO2) Krebs-Henseleit bicarbonate buffer (pH 7.4) with 10 mM glucose. Muscles are then transferred to fresh buffer containing 0.5 mM cycloheximide for 2 h incubation. The total (tyrosine) and myofibrillar (1-methyl-histidine, 1-Me-His) protein breakdown rates are determined by measuring the net production of tyrosine and 1-Me-His during 2 h incubation.

A further assay has as its system PDE4D in lung tissue. The settings on record: murine model of asthma; cited from earlier work.

Regarding `CCOCn1cnc2c1c(=O)n(CCCCC(C)(C)O)c(=O)n2C` [torbafylline], in the assay with mouse myotubes, C2C12, the PDE4B expression entry is on record as “normalized” and the “proteolysis (protein breakdown)” value was “normalized”. In assay [1], the EPAC/PI3K/Akt pathway entry is “activating”, the “burn-induced skeletal muscle proteolysis” value is listed as “significantly attenuated”, the “skeletal muscle PDE4 activity” value is recorded as “normalizing” and the “skeletal muscle cAMP concentrations” value was “normalizing”.

As for `CC(C)(C)c1cc(C(=O)/C(C#N)=N/Nc2cccc(Cl)c2)no1` [ESI-09], in assay [2], the “burn-induced EDL muscle myofibrillar protein breakdown (1-Me-His)” value was “to the same extent as in the EDL muscle of burn-WT rats” and the “burn-induced EDL muscle total protein breakdown (Tyr)” value was “to the same extent as in the EDL muscle of burn-WT rats”.

As for `CCc1c(C)nc(-c2ccc(Cl)s2)nc1Nc1ccc(CC(=O)O)cc1` [Compound 33, (4-{[2-(5-Chloro-2-thienyl)-5-ethyl-6-methyl-4-pyrimidinyl]amino}phenyl) acetic acid], in assay [3], the “1-Me-His release from the EDL muscle (myofibrillar protein breakdown)” value is given as “significantly decreases” and the “Tyr release from the EDL muscle (total protein breakdown)” value was “significantly decreases”.

For `O=S(=O)(NCCNC/C=C/c1ccc(Br)cc1)c1cccc2cnccc12` [Compound H89], in assay [2], the “burn-induced EDL muscle myofibrillar protein breakdown (1-Me-His)” value was “did not exhibit any effect” and the “burn-induced EDL muscle total protein breakdown (Tyr)” value is reported as “did not exhibit any effect”.

Take ciclamilast: in the assay with PDE4D in lung tissue, the “PDE4D activity in lung tissue” value is recorded as “normalized” and the “PDE4D mRNA expression in lung tissue” value is reported as “normalized”.
